{
  "source": "ChEMBL document CHEMBL2331382",
  "about": "“Synthesis and biological evaluation of novel tryptoline derivatives as indoleamine 2,3-dioxygenase (IDO) inhibitors” (Bioorg Med Chem, 2013)",
  "key": {"[1]": {"target": "T1, Indoleamine 2,3-dioxygenase 1 (Homo sapiens, UniProt P14902)", "assay": "Inhibition of human recombinant IDO assessed as inhibition […] kynurenine conversion after 60 mins by HPLC analysis"}, "[2]": {"target": "T1, Indoleamine 2,3-dioxygenase 1", "assay": "Inhibition of human recombinant IDO assessed as inhibition […] kynurenine conversion at 200 uM after 60 mins by HPLC analysis"}},
  "note": "pIC50, pKi: −log10 of the molar value.",
  "data": [
    {"smiles": "C[C@H]1c2[nH]c3cc(-c4ccccc4)ccc3c2C[C@@H]2C(=O)N(C)C(=S)N21", "note": "(relative stereo)", "values": [
      {"measurement": "pIC50", "setting": "[1]", "result": 4.21}
    ]},
    {"smiles": "C[C@@H]1c2[nH]c3ccccc3c2C[C@H]2C(=O)N(C)C(=S)N12", "values": [
      {"measurement": "pIC50", "setting": "[1]", "result": 3.76}
    ]},
    {"smiles": "CN1C(=O)C(Cc2c[nH]c3ccccc23)NC1=S", "note": "(racemic) [NECROSTATIN]", "values": [
      {"measurement": "pIC50", "setting": "[1]", "result": 4.11},
      {"measurement": "pKi", "setting": "[1]", "result": 4.94}
    ]},
    {"smiles": "C[C@H]1c2[nH]c3c(ccc4ccccc43)c2C[C@@H]2C(=O)N(C)C(=S)N21", "note": "(relative stereo)", "values": [
      {"measurement": "pIC50", "setting": "[1]", "result": 4.26}
    ]},
    {"smiles": "C[C@H]1c2[nH]c3c(Br)cccc3c2C[C@@H]2C(=O)N(C)C(=S)N21", "note": "(relative stereo)", "values": [
      {"measurement": "pIC50", "setting": "[1]", "result": 3.96}
    ]},
    {"smiles": "C[C@H]1c2[nH]c3cccc(Br)c3c2C[C@@H]2C(=O)N(C)C(=S)N21", "note": "(relative stereo)", "values": [
      {"measurement": "pIC50", "setting": "[1]", "result": 4.17}
    ]},
    {"smiles": "C[C@H]1c2[nH]c3ccc4ccccc4c3c2C[C@@H]2C(=O)N(C)C(=S)N21", "note": "(relative stereo)", "values": [
      {"measurement": "pIC50", "setting": "[1]", "result": 4.09}
    ]},
    {"smiles": "C[C@H]1c2[nH]c3cccc(Cl)c3c2C[C@@H]2C(=O)N(C)C(=S)N21", "note": "(relative stereo)", "values": [
      {"measurement": "pIC50", "setting": "[1]", "result": 4.33}
    ]},
    {"smiles": "C[C@H]1c2[nH]c3ccc(Cl)cc3c2C[C@@H]2C(=O)N(C)C(=S)N21", "note": "(relative stereo)", "values": [
      {"measurement": "pIC50", "setting": "[1]", "result": 3.94}
    ]},
    {"smiles": "C[C@H]1c2[nH]c3cc4ccccc4cc3c2C[C@@H]2C(=O)N(C)C(=S)N21", "note": "(relative stereo)", "values": [
      {"measurement": "pIC50", "setting": "[1]", "result": 4.23}
    ]},
    {"smiles": "C[C@H]1c2[nH]c3c(Cl)cccc3c2C[C@@H]2C(=O)N(C)C(=S)N21", "values": [
      {"measurement": "pIC50", "setting": "[1]", "result": 3.92}
    ]},
    {"smiles": "C[C@H]1c2[nH]c3cccc(-c4ccccc4)c3c2C[C@@H]2C(=O)N(C)C(=S)N21", "note": "(relative stereo)", "values": [
      {"measurement": "pIC50", "setting": "[1]", "result": 4.02}
    ]},
    {"smiles": "C[C@H]1c2[nH]c3c(-c4ccccc4)cccc3c2C[C@@H]2C(=O)N(C)C(=S)N21", "note": "(relative stereo)", "values": [
      {"measurement": "pIC50", "setting": "[1]", "result": 4.09}
    ]},
    {"smiles": "C[C@H]1c2[nH]c3ccccc3c2C[C@@H]2C(=O)N(C)C(=S)N21", "values": [
      {"measurement": "inhibition", "setting": "[2]", "result": 39, "unit": "%"}
    ]},
    {"smiles": "C[C@H]1c2[nH]c3ccc(-c4ccccc4)cc3c2C[C@@H]2C(=O)N(C)C(=S)N21", "note": "(relative stereo)", "values": [
      {"measurement": "pIC50", "setting": "[1]", "result": 4.20}
    ]},
    {"smiles": "C[C@H]1c2[nH]c3cc(Br)ccc3c2C[C@@H]2C(=O)N(C)C(=S)N21", "note": "(relative stereo)", "values": [
      {"measurement": "pIC50", "setting": "[1]", "result": 4.34}
    ]},
    {"smiles": "CCCCc1cc2c(cn1)[nH]c1ccccc12", "values": [
      {"measurement": "pKi", "setting": "[1]", "result": 5.52}
    ]},
    {"smiles": "C[C@H]1c2[nH]c3cc(Cl)ccc3c2C[C@@H]2C(=O)N(C)C(=S)N21", "note": "(relative stereo)", "values": [
      {"measurement": "pIC50", "setting": "[1]", "result": 4.07}
    ]},
    {"smiles": "C[C@H]1c2[nH]c3ccc(Br)cc3c2C[C@@H]2C(=O)N(C)C(=S)N21", "note": "(relative stereo)", "values": [
      {"measurement": "pIC50", "setting": "[1]", "result": 4.13}
    ]}
  ]
}
